2 compounds from patent US8841257B2, “Inhibitors of STAT3 and uses thereof” (Board of Regents, The University of Texas System, priority 2009, dated 2014) can be followed below.

For experiment [1], the system named is MDA-MB-231 and SUM149 cells. As to the kind of experiment: Vasculogenic mimicry exhibited by breast cancer cells. It is filed as cell-based. The settings on record: 5 μM in DMSO; 24 hours. The method, then: Cells were treated with 5 μM of the compounds from examples 1 and 8 formulated in DMSO or with DMSO alone as a control. To highlight the matrix-associated vascular channels that were formed, cells were stained with periodic acid-Schiff (PAS) reagent. Representative photographs were taken at 24 hours at —10 magnification. Each experiment was repeated 3 times.

Experiment [2] concerns MDA7, MDA-MB-231, SUM149, and SUM190. Briefly: Anchorage-independent growth in soft agar, four breast tumor models. The settings on record: MDA7, MDA-MB-231, SUM149, SUM190; 28 days. The format is cell-based. The protocol: Assay for anchorage-independent growth in soft agar Cells (5×10^5) were suspended in 1× DMEM/HEPES, 10% heat-inactivated FBS, 0.13% bicarbonate, and 0.33% BBL agar. The cells were plated on 1% base agar plates (60 mm) containing 1× DMEM/HEPES, 10% heat-inactivated FBS, and 1% BBL agar. Fresh serum-containing medium was fed to the cells on 3-day intervals. The dishes were then incubated at 37° C. with 5% CO2 for 28 days. The colonies that grew in soft agar were photographed and counted. Data are expressed as the number of colonies formed per plate±S.E.M. and three plates were counted per cell line.

Experiment [3] has as its system SUM149 and MDA-MB-231 cells. Briefly: In vitro invasion of an artificial basement membrane. The format is cell-based, human. The settings on record: 72 hours. The method, then:
Effect of prodrugs on in vitro invasion of an artificial basement membrane by human breast cancer cells. SUM149 and MDA-MB-231 cells were trypsinized, resuspended in serum-supplemented medium, and counted. Cells were then washed 3 times with serum-free medium. Plates (6-well) compatible with transwell inserts with 8 μm pore-size polycarbonate filters (Fisher Scientific) were coated with Matrigel in cold serum-free DMEM/F12 at a final concentration of 0.7 mg/mL and held at room temperature for 40 minutes. Cells (in 500 μL serum-free medium) were added into the transwell inserts and incubated for 72 hours in the absence or presence 5 μM prodrug in DMSO (1% by volume). For a control, 10% FBS was used to evaluate the baseline extent of invasion of the different cell lines. After incubation, noninvading cells on the upper surface of the filter were removed with cotton swabs. Cells that had passed through the pores onto the lower side of the filter were fixed, stained with Hema-3 stain (Fisher Scientific), and quantified. The experiments were performed in triplicate and were repeated twice.

A further experiment concerns STAT5. As to the kind of experiment: EGF-stimulated STAT5 phosphorylation in MDA-MB-468 cells. The format is cell-based, human. As to conditions: 1.5 hr prodrug, then EGF 100 ng/mL 30 min. The protocol: (§1) Effect of prodrug on the phosphorylation of STAT3, STAT5 and Akt in response to Epidermal Growth Factor stimulation. MDA-MB-468 cells were prepared as above. Prodrugs were prepared as 10 mM stock solutions in DMSO and aliquots were added to the culture media to give the correct final concentrations. After 1.5 hr EGF was added at 100 ng/mL. After 30 minutes cells were collected and lysed and proteins were separated by PAGE and transferred to three PVDF filters as above. The first filter was blocked with 5% bovine serum albumin and probed for total and phosphoStat3 as above. The second filter was probed for phosphoSer473Akt and total Akt using appropriate antibodies and similar detection procedures to those used for STAT3. The third filter was probed for phosphoTyr699 Stat5 and total STAT5 using appropriate antibodies and similar detection procedures to those used for STAT3.

Another experiment has as its system Akt. As to the kind of experiment: EGF-stimulated Akt Ser473 phosphorylation in MDA-MB-468 cells. The settings on record: 1.5 hr prodrug, then EGF 100 ng/mL 30 min. It is filed as cell-based, human. The method, then:
as §1

For another experiment, the target named is T1, STAT1 (Homo sapiens, UniProt P42224).
T1 sequence (P42224 1-750): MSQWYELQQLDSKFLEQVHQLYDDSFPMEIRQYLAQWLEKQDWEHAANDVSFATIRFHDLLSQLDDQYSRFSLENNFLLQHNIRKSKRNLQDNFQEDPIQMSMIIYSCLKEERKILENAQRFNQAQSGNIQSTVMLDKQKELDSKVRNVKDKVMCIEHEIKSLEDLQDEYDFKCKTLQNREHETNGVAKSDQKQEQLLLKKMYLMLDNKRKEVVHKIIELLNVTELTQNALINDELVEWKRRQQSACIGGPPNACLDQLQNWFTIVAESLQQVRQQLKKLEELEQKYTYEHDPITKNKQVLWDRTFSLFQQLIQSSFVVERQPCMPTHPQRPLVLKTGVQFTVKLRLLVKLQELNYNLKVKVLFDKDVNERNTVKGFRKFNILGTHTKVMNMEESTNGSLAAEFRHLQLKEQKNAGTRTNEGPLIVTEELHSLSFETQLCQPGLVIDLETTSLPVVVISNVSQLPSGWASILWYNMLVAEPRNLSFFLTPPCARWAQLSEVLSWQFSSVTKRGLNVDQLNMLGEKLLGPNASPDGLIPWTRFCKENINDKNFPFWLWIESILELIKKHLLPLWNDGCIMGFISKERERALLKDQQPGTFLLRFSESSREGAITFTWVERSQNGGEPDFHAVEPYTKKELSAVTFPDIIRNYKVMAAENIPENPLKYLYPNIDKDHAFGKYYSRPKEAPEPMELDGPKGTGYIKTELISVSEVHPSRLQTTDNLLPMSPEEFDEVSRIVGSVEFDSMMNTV
Briefly: IFNγ-stimulated STAT1 phosphorylation in MDA-MB-468 cells. The format is cell-based. Also noted: host or cells: MDA-MB-468 breast tumor cells. The settings on record: for inhibition of Stat1 phosphorylation compared with Stat3 phosphorylation: 1.5 hr prodrug, then interferonγ 25 ng/mL 30 min; for fold less potent at inhibiting STAT1 than STAT3: MDA-MB-468 cells. The protocol: Effect of Prodrug on the phosphorylation of STAT1 in MDA-MB-468 breast tumor cells. MDA-MB-468 cells were prepared as above. Prodrugs were prepared as 10 mM stock solutions in DMSO and aliquots were added to the culture media to give the correct final concentrations. After 1.5 hr interferonγ was added at 25 ng/mL. After 30 minutes cells were collected and lysed and proteins were separated by PAGE and transferred to PVDF filters as above. Filters were probed for phosphoTyr701 Stat 1 and total Stat1 using appropriate antibodies and similar detection procedures to those used for Stat3.

A further experiment relates to VEGF. As to the kind of experiment: Inhibition of VEGF expression in lung tumor cells (ELISA). It is filed as cell-based, human. The settings on record: single dose of 5 μM; HCC-827. The protocol: Inhibition of VEGF expression in lung tumor cells. HCC-827 were seeded in 6-well plates at a density of 4×10^5 cells. The following day, the media was replaced with fresh media containing low serum and treated either the compound from example 16 at a concentration of 5 μM. The cells were incubated at 37° C. and the supernatant was collected at 2, 4, 24, 48 and 72 hours post treatment. The supernatant was centrifuged at 2000 rpm for 3 minutes, transferred to fresh tubes and stored at −20 for further analysis. The supernatants were diluted six times with distilled water.

In the case of `C/C(=C\C(=O)N[C@H]1CCc2cccc3c2N(C1=O)[C@H](C(=O)N[C@H](C)CCC(N)=O)C3)c1ccc(C(F)(F)P(=O)(OCOC(=O)C(C)(C)C)OCOC(=O)C(C)(C)C)cc1` [Example 1, (2E)-3-[4-[[bis[(2,2-dimethyl-1-oxopropoxy)methoxy]phosphinyl]difluoromethyl]phenyl]-but-2-enoyl-Haic-(R)-4-aminopentamide], the vasculogenic mimicry result in experiment [1] was “Significant reduction”. Besides, the “colony formation in soft agar, four breast tumor models” value in experiment [2] is listed as “effectively inhibited colony formation”. Besides, the “invasion through the artificial basement membrane” value in experiment [3] (5 μM in DMSO) is on record as “inhibited invasion”. Moreover, in experiment [3] (5 μM), the “effectiveness in invasion assay relative to Example 8” value is “more effective”. For the same compound, the “Stat5 phosphorylation after EGF” value in the experiment on STAT5 is given as “no effect”. In addition, the “Akt Ser473 phosphorylation after EGF” value in the experiment on Akt is “no effect”. Further, on STAT1, the “inhibition of Stat1 phosphorylation compared with Stat3 phosphorylation” value was “less effective” and the “fold less potent at inhibiting STAT1 than STAT3” value is given as “about 10 fold”.

For `CCCC[C@H](NC(=O)/C=C(\C)c1ccc(C(F)(F)P(=O)(OCOC(=O)C(C)(C)C)OCOC(=O)C(C)(C)C)cc1)C(=O)N1C[C@H]2CC2[C@H]1C(=O)N[C@@H](CCC(N)=O)[C@@H](C)OCc1ccccc1` (stereo partly drawn) [Example 16, (2E)-3-[4-[[bis[(2,2-dimethyl-1-oxopropoxy)methoxy]phosphinyl]difluoromethyl]phenyl]-but-2-enoyl-norleucinyl-(2S,3R,4S)-methanoprolinyl-(4S,5R)-4-amino-5-benzyloxyhexamide], the “time up to which expression and excretion of VEGF is inhibited” value in the experiment on VEGF is on record as “up to 24 hr”. Moreover, the “Stat5 phosphorylation after EGF” value with STAT5 is reported as “no effect”. Further, in the experiment with Akt, the “Akt Ser473 phosphorylation after EGF” value is on record as “no effect”. On STAT1, the “inhibition of Stat1 phosphorylation compared with Stat3 phosphorylation” value is given as “less effective” and the “fold less potent at inhibiting STAT1 than STAT3” value is “about 10 fold”.
